# Assay results as given in patent publication US11053204B2, “Pyrimidinyloxy benzene derivatives as herbicides” (FMC Corporation, priority 2015, dated 2021).
# Key:
# Assay type in all cases: in vivo
# [1] = system: Italian ryegrass (Lolium multiflorum); test: Test A preemergence, visual injury rating; settings: Lolium multiflorum, pre-emergence, 240 h, 0 to 100 scale (0 no effect, 100 complete control), read-out: Ryegrass, Italian plant response rating
# Method in brief: (§1)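 Greenhouse pot test, loam/sand soil. Formulation: non-phytotoxic solvent mix plus surfactant. Pre: directed spray onto soil after sowing. Post: plants at 1–2 leaf, 2–10 cm. Rated visually vs untreated controls at ~10 d, 0 (no effect) to 100 (complete control).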
# [2] = system: barnyardgrass (Echinochloa crus-galli); test: Test A preemergence, visual injury rating; settings: Echinochloa crus-galli, pre-emergence, 240 h, 0 to 100 scale (0 no effect, 100 complete control), read-out: Barnyardgrass plant response rating
# Method in brief: as §1
# [3] = system: giant foxtail (Setaria faberii); test: Test A preemergence, visual injury rating; settings: Setaria faberi, pre-emergence, 240 h, 0 to 100 scale (0 no effect, 100 complete control), read-out: Foxtail, Giant plant response rating
# Method in brief: as §1
# kochia (Kochia scoparia) [4] = test: Test A preemergence, visual injury rating; settings: Bassia scoparia, pre-emergence, 240 h, 0 to 100 scale (0 no effect, 100 complete control), read-out: Kochia plant response rating
# Method in brief: as §1
# [5] = system: pigweed (Amaranthus retroflexus); test: Test A preemergence, visual injury rating; settings: Amaranthus retroflexus, pre-emergence, 240 h, 0 to 100 scale (0 no effect, 100 complete control), read-out: Pigweed plant response rating
# Method in brief: as §1
# [6] = system: ragweed (common ragweed, Ambrosia elatior); test: Test A preemergence, visual injury rating; settings: Ambrosia artemisiifolia, pre-emergence, 240 h, 0 to 100 scale (0 no effect, 100 complete control), read-out: Ragweed plant response rating
# Method in brief: as §1
# [7] = system: barnyardgrass (Echinochloa crus-galli); test: Test C postemergence, plant response rating; settings: Echinochloa crus-galli, post-emergence
# Method in brief: (§2)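 Greenhouse plants rated visually against untreated controls 13–15 d after treatment, scale 0 = no effect to 100 = complete control. Postemergence sprays went onto potted plants 2–18 cm tall (1–4 leaves); preemergence sprays onto soil freshly sown in loam–sand or silt loam, chemicals formulated in non-phytotoxic solvent with surfactant.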
# corn (Zea mays) = test: Test C postemergence, plant response rating; settings: Zea mays, post-emergence
# Method in brief: as §2
# [8] = system: crabgrass, large (large crabgrass, Digitaria sanguinalis); test: Test C postemergence, plant response rating; settings: Digitaria sanguinalis, post-emergence
# Method in brief: as §2
# kochia (Kochia scoparia) [9] = test: Test C postemergence, plant response rating; settings: Bassia scoparia, post-emergence
# Method in brief: as §2
# [10] = system: lambsquarters (Chenopodium album); test: Test C postemergence, plant response rating; settings: Chenopodium album, post-emergence
# Method in brief: as §2
# [11] = system: morningglory (Ipomoea coccinea); test: Test C postemergence, plant response rating; settings: Ipomoea, post-emergence
# Method in brief: as §2
# [12] = system: nutsedge, yellow (yellow nutsedge, Cyperus esculentus); test: Test C postemergence, plant response rating; settings: Cyperus, post-emergence
# Method in brief: as §2
# [13] = system: oat, wild (wild oat Avena fatua); test: Test C postemergence, plant response rating; settings: Avena fatua, post-emergence
# Method in brief: as §2
# [14] = system: ragweed (common ragweed, Ambrosia elatior); test: Test C postemergence, plant response rating; settings: Ambrosia artemisiifolia, post-emergence
# Method in brief: as §2
# [15] = system: velvetleaf (Abutilon theophrasti); test: Test C postemergence, plant response rating; settings: Abutilon theophrasti, post-emergence
# Method in brief: as §2
# [16] = 62 g ai/ha, scale 0 to 100 (0 no effect, 100 complete control)
# [17] = 125 g ai/ha, scale 0 to 100 (0 no effect, 100 complete control)
compound,measurement,setting,value
"N#Cc1cccc(Oc2ncc(Cl)cn2)c1CCCCC(F)(F)F [Compound 73, 3-[(5-chloro-2-pyrimidinyl)oxy]-2-(5,5,5-trifluoropentyl)benzonitrile]",pest or weed control at 125 g/ha,[1]; 125 g ai/ha,50%
same,pest or weed control at 500 g/ha,[1]; 500 g ai/ha,90%
same,pest or weed control at 125 g/ha,[2]; 125 g ai/ha,100%
same,pest or weed control at 500 g/ha,[2]; 500 g ai/ha,100%
same,pest or weed control at 125 g/ha,[3]; 125 g ai/ha,100%
same,pest or weed control at 500 g/ha,[3]; 500 g ai/ha,100%
same,pest or weed control at 125 g/ha,kochia (Kochia scoparia) [4]; 125 g ai/ha,100%
same,pest or weed control at 500 g/ha,kochia (Kochia scoparia) [4]; 500 g ai/ha,100%
same,pest or weed control at 125 g/ha,[5]; 125 g ai/ha,100%
same,pest or weed control at 500 g/ha,[5]; 500 g ai/ha,100%
same,pest or weed control at 125 g/ha,[6]; 125 g ai/ha,10%
same,pest or weed control at 500 g/ha,[6]; 500 g ai/ha,50%
same,pest or weed control at 16 g/ha,"[7]; 16 g ai/ha, scale 0 to 100",10%
same,pest or weed control at 31 g/ha,"[7]; 31 g ai/ha, scale 0 to 100",15%
same,pest or weed control at 62 g/ha,[7]; [16],20%
same,pest or weed control at 125 g/ha,[7]; [17],30%
same,"Corn plant response rating (crop injury, 0 = no effect, 100 = complete kill) at 16 g/ha","corn (Zea mays); 16 g ai/ha, scale 0 to 100",10%
same,"Corn plant response rating (crop injury, 0 = no effect, 100 = complete kill) at 31 g/ha","corn (Zea mays); 31 g ai/ha, scale 0 to 100",20%
same,plant injury at 62 g/ha,corn (Zea mays); [16],15%
same,plant injury at 125 g/ha,corn (Zea mays); [17],15%
same,pest or weed control at 16 g/ha,"[8]; 16 g ai/ha, scale 0 to 100",15%
same,pest or weed control at 31 g/ha,"[8]; 31 g ai/ha, scale 0 to 100",10%
same,pest or weed control at 62 g/ha,[8]; [16],25%
same,pest or weed control at 125 g/ha,[8]; [17],60%
same,pest or weed control at 16 g/ha,"kochia (Kochia scoparia) [9]; 16 g ai/ha, scale 0 to 100",98%
same,pest or weed control at 31 g/ha,"kochia (Kochia scoparia) [9]; 31 g ai/ha, scale 0 to 100",100%
same,pest or weed control at 62 g/ha,kochia (Kochia scoparia) [9]; [16],100%
same,pest or weed control at 125 g/ha,kochia (Kochia scoparia) [9]; [17],100%
same,pest or weed control at 16 g/ha,"[10]; 16 g ai/ha, scale 0 to 100",75%
same,pest or weed control at 31 g/ha,"[10]; 31 g ai/ha, scale 0 to 100",80%
same,pest or weed control at 62 g/ha,[10]; [16],90%
same,pest or weed control at 125 g/ha,[10]; [17],98%
same,pest or weed control at 16 g/ha,"[11]; 16 g ai/ha, scale 0 to 100",70%
same,pest or weed control at 31 g/ha,"[11]; 31 g ai/ha, scale 0 to 100",75%
same,pest or weed control at 62 g/ha,[11]; [16],85%
same,pest or weed control at 125 g/ha,[11]; [17],75%
same,pest or weed control at 16 g/ha,"[12]; 16 g ai/ha, scale 0 to 100",5%
same,pest or weed control at 31 g/ha,"[12]; 31 g ai/ha, scale 0 to 100",15%
same,pest or weed control at 62 g/ha,[12]; [16],20%
same,pest or weed control at 125 g/ha,[12]; [17],30%
same,pest or weed control at 16 g/ha,"[13]; 16 g ai/ha, scale 0 to 100",5%
same,pest or weed control at 31 g/ha,"[13]; 31 g ai/ha, scale 0 to 100",5%
same,pest or weed control at 62 g/ha,[13]; [16],5%
same,pest or weed control at 125 g/ha,[13]; [17],10%
same,pest or weed control at 16 g/ha,"[14]; 16 g ai/ha, scale 0 to 100",50%
same,pest or weed control at 31 g/ha,"[14]; 31 g ai/ha, scale 0 to 100",55%
same,pest or weed control at 62 g/ha,[14]; [16],60%
same,pest or weed control at 125 g/ha,[14]; [17],65%
same,pest or weed control at 16 g/ha,"[15]; 16 g ai/ha, scale 0 to 100",40%
same,pest or weed control at 31 g/ha,"[15]; 31 g ai/ha, scale 0 to 100",60%
same,pest or weed control at 62 g/ha,"[15]; 62 g ai/ha, scale 0 to 100 (0 no effect, 100 complete control), read-out: Velvetleaf plant response rating",70%
same,pest or weed control at 125 g/ha,[15]; [17],75%
